The text below walks through data of US20190134069A1, “USE OF THYROID BETA-AGONISTS” (priority 2016, published 2019).

For data set [1], the system named is X-ALD fibroblast cell lines. As to the kind of experiment: Cell health (proliferation, morphology) of X-ALD fibroblasts incubated with compounds. The class given is cell-based, Human. Conditions: for cell survival (toxicity): 100 μM, both X-ALD cell lines, within 24 hours; for cell health judged by proliferation and morphology: after 72 hours. On the procedure: (§1) Human skin fibroblasts were obtained from X-ALD patients through the Neurology Outpatient Clinic of the Academic Medical Center. Written informed consent was received from each patient. X-ALD diagnosis was confirmed by VLCFA and ABCD1 mutation analysis. Control fibroblasts were obtained from male anonymous volunteers with written informed consent. Fibroblasts were cultured in Dulbecco's modified Eagle's medium (DMEM) with L-glutamine and 4.5 g/L glucose, supplemented with 10% fetal calf serum, 2.5 mM HEPES, 100 U/ml penicillin and 100 U/ml streptomycin. Cells were cultured at 37° C. in a humidified 5% CO2 atmosphere. All fibroblast cell lines used were tested routinely for mycoplasma. All tests were negative.
10 mM stock solutions in DMSO were prepared by weighing the amount of compound (1 and 3 and their respective active metabolites, 2 and 4) as indicated in Table 2. Stock solutions were stored at room temperature in the dark. For each incubation, the amount of tissue culture medium needed was calculated and a stock solution of tissue culture medium with the final concentration of the to-be-tested compound was prepared. Tissue culture medium was removed from the cells, cells were washed once with PBS and the tissue culture medium with the compounds was added. If an experiment lasted longer than three days, the tissue culture medium and compounds were refreshed (using a fresh preparation) after three days until the end of the experiment.
Two different X-ALD fibroblast cell lines were incubated in duplicate with four compounds at three dosages as highlighted in Table 3.
4 X-ALD cell lines were incubated with 10 μM of 4 compounds 1, 2, 3, and 4. The effect of treatment on ABCD2 expression was analyzed at day 3 and day 10. For the 10 day incubation, tissue culture medium and compounds were refreshed at day 3 and day 6.

For data set [2], the system named is X-ALD cell lines. Briefly: D3-C26:0 de novo synthesis from D3-C22:0 in intact cells. The format is cell-based, Human. Conditions: 10 day treatment, 5 X-ALD cell lines. On the procedure:
as §1
The effect of treatment on D3-C26:0 synthesis in intact cells. The effect of certain compounds of the invention on the synthesis of D3-C26:0 from D3-C22:0 was measured in cultured skin fibroblasts from controls and X-ALD patients. Cells were seeded at approximately 40% confluency in T75 flasks in DMEM. The next day, medium was replaced with medium containing 30 μM D3-C22:0 and the assayed compounds at their final concentration. […] Each 72 h, the tissue culture medium and compounds was refreshed. At the end of the experiment cells were harvested and VLCFA analyzed as described (Valianpour et al., Molecular Genetics and Metabolism, 79: 189-196 (2003)).
VLCFA were analyzed by electrospray ionization mass spectrometry (ESI-MS) as described (Valianpour et al., Molecular Genetics and Metabolism, 79: 189-196 (2003)).
5 different X-ALD cell lines were incubated for 6 days with compounds 1, 2, 3, and 4 at 10 μM, 5 mM 4PBA (sodium 4-phenylbutyrate), or 0.1 μM sobetirome. On Day 6, 30 μM D3C22:0 was added to assess the effect of treatment on beta-oxidation and de novo D3C26:0 synthesis. 6 untreated control cells as well as 5 different untreated X-ALD cells were included to allow assessment of the treatment effect. The total set consisted of 41 experiments

Data set [3] relates to ABCD1−/− mice. As to the kind of experiment: Whole blood VLCFA-LPC levels in in vivo model of X-ALD. The following applies: for Mean blood C26:0-LPC level: once daily IP. As for the experimental part: (§2) Male ABCD1−/− mice were developed using the Taconic 129SvEv background strain. Animals were housed 3-4/cage under a 12-hour lighting cycle (7 AM-7 PM light) and controlled temperature (22° C.) in the rodent facility. They were fed standard mouse chow and had access to drinking water ad libitum. Mice were between 2 and 3 months of age at the beginning of each study.
(§3) Mice were injected once daily intraperitoneal with either drug or vehicle. For blood collection, ˜50 μL of blood was obtained by facial vein puncture using a sterile lancet. Blood was collected in a 1.5 ml microcentrifuge tube containing dried dipotassium EDTA and mixed by gentle inversion at least ten times before storing at −20° C. Blood was obtained in this manner following two, four, and six weeks of treatment. Following blood collection at six weeks, animals were sacrificed by cervical dislocation. Additional blood for preparation of plasma was obtained via cardiac puncture, and blood placed in Microtainer tubes. Brain, spinal cord, adrenal glands, testis, and liver were excised and snap frozen in liquid nitrogen for future analyses.

For data set [4], the system named is ABCD1−/− mice. Briefly: Plasma VLCFA-LPC levels in in vivo model of X-ALD. As for the experimental part: as §2, §3
During the second cohort study, blood was obtained as described in the Methods section. At the six week time point sufficient blood was collected to permit plasma VLCFA analyses at weeks two, four and six. Plasma is considered by many to be a more reliable measurement of VLCFA levels, because of reduced analytical interference from other analytes, as well as reduced variability of the measurements.

Data set [5] relates to X-ALD cell lines. As to the kind of experiment: D3-C22:0 (VLCFA) beta-oxidation in intact cells. The format is cell-based, Human. The following applies: 10 day treatment, 5 X-ALD cell lines. On the procedure:
as §1
Peroxisomal beta-oxidation activity was measured essentially as described by incubating cells with 30 μM deuterium-labeled C22:0 (D3-C22:0) (Kemp et al., Clinical Chemistry 50: 1824-1826 (2004)). Cells were seeded at approximately 40% confluency in T75 flasks in DMEM. […] At the end of the experiment cells were harvested and VLCFA analyzed as described (Valianpour et al., Molecular Genetics and Metabolism, 79: 189-196 (2003)).
VLCFA were analyzed by electrospray ionization mass spectrometry (ESI-MS) as described (Valianpour et al., Molecular Genetics and Metabolism, 79: 189-196 (2003)). […]

The mark [6] stands for this setting: second cohort, week 6, p<0.0001.

Structures are written as SMILES.

Consider `Cc1cc(OC[P@@]2(=O)OCC[C@@H](c3cccc(Cl)c3)O2)cc(C)c1Cc1ccc(O)c(C(C)C)c1` [Compound 1], for which, in data set [1], the “cell survival (toxicity)” value is on record as “dead”. The “cell health judged by proliferation and morphology” value in data set [1] (0.1 or 10 μM) is “looked healthy”. Besides, the “reduction in D3C26:0 de novo synthesis” value in data set [2] (10 μM) is given as roughly 40%.
`Cc1cc(OCP(=O)(O)O)cc(C)c1Cc1ccc(O)c(C(C)C)c1` [Compound 2]: the “cell health judged by proliferation and morphology” value in data set [1] (0.1, 1 or 10 μM) is given as “looked healthy”.
For the compound `Cc1cc(OCP(=O)(OCOC(=O)C(C)(C)C)OCOC(=O)C(C)(C)C)cc(C)c1Cc1ccc(O)c(Cc2ccccc2)c1` [Compound 3], the “cell survival (toxicity)” value in data set [1] was “dead”. The “cell health judged by proliferation and morphology” value in data set [1] (0.1 or 10 μM) is “looked healthy”. For the same compound, the “reduction in whole blood C26:0-LPC levels relative to vehicle controls” value in data set [3] (initial cohort, after six week treatment, p<0.0001) is 40%. Also, in data set [3] (initial cohort, week 2), the “Mean blood C26:0-LPC level” value was found to be 0.262 µM and the “Difference in Mean Change from Baseline, blood C26:0-LPC” value (from here on “Difference in Mean Change from Baseline”) is -0.052 µM. Moreover, in data set [3] (initial cohort, week 4), the “Mean blood C26:0-LPC level” value turned out to be 0.276 µM and the “Difference in Mean Change from Baseline” value was -0.081 µM. Moreover, in data set [3] (initial cohort, week 6), the “Mean blood C26:0-LPC level” value stood at 0.356 µM and the “Difference in Mean Change from Baseline” value is -0.188 µM. Also, the “% Difference versus Vehicle, blood C26:0-LPC” value (from here on “% Difference versus Vehicle”) in data set [3] (initial cohort, week 2, p NS) came out at 0%. Besides, in data set [3] (initial cohort, week 4, p NS), the “% Difference versus Vehicle” value is given as −11%. Besides, the “% Difference versus Vehicle” value in data set [3] (initial cohort, week 6, p<0.0001) is recorded as −40%. For the same compound, the “reduction in whole blood C26:0-LPC levels (change from baseline)” value in data set [3] (second cohort, daily IP, six weeks of treatment, FIG. 8) is recorded as “approximately 0.11 μM”. Further, in data set [3] (second cohort, week 2, p NS versus vehicle), the “Least Squares Mean Change from Baseline Whole Blood C26:0-LPC” value (from here on “Least Squares Mean Change”) was -0.021 µM. Besides, in data set [3] (second cohort, week 4, p<0.01 versus vehicle), the “Least Squares Mean Change” value was -0.096 µM. In data set [3] (second cohort, week 6, p<0.005 versus vehicle), the “Least Squares Mean Change” value is -0.12 µM. Also, in data set [3] (second cohort, whole blood, six weeks, p<0.005), the “reduction in C26:0-LPC relative to vehicle-treated animals” value was determined as 52%. In data set [4] (after six weeks of treatment), the “C20:0-, C22:0-, and C24:0-LPC levels” value is “significant reductions”. For the same compound, in data set [4] (second cohort, week 6), the “Mean plasma C20:0-LPC level” value turned out to be 0.76 µM, the “Mean plasma C22:0-LPC level” value turned out to be 0.20 µM, the “Mean plasma C24:0-LPC level” value was determined as 1.14 µM and the “Mean plasma C26:0-LPC level” value was 0.20 µM. Moreover, in data set [4] (setting [6]), the “% Difference vs. Vehicle, plasma C20:0-LPC” value is listed as −54%; the “% Difference vs. Vehicle, plasma C22:0-LPC” value was −43%; the “% Difference vs. Vehicle, plasma C26:0-LPC” value is −29%. The “% Difference vs. Vehicle, plasma C24:0-LPC” value in data set [4] (second cohort, week 6, p<0.005) is −21%.
On to `O=C([O-])CCCc1ccccc1.[Na+]` [Compound 4PBA, sodium 4-phenylbutyrate], for which the VLCFA beta-oxidation restored in data set [5] (5 mM) is ~50 % of controls. The “VLCFA (D3C26:0) de novo synthesis” value in data set [2] (5 mM) was “near normal levels”.
As for `Cc1cc(OCP(=O)(O)O)cc(C)c1Cc1ccc(O)c(Cc2ccccc2)c1` [Compound 4], in data set [1] (0.1, 1 or 10 μM), the “cell health judged by proliferation and morphology” value is listed as “looked healthy”.
In the case of `Cc1cc(OCC(=O)O)cc(C)c1Cc1ccc(O)c(C(C)C)c1` [sobetirome], in data set [5] (0.1 μM), the “effect on VLCFA beta-oxidation” value is “did not show any beneficial effect”. In addition, the “effect on VLCFA de novo synthesis” value in data set [2] (0.1 μM) is recorded as “did not show any beneficial effect”.
